Data on eight compounds can be found in PubChem BioAssay (NCI).

Common to all, as to assay: growth of human tumour cells (NCI), 48 h
Assay [1] has as its system NCI-H522 lung.
The subject of assay [2] is SF-539 CNS.
For assay [3], the system named is CCRF-CEM leukemia.
For assay [4], the system named is OVCAR-3 ovarian.
The test system of assay [5] is MALME-3M melanoma.
In assay [6] the test system is HOP-92 NSCLC.
The subject of assay [7] is OVCAR-5 ovarian.
Assay [8] deals with HCT-116 colon.
Assay [9] has as its system SR leukemia.
In assay [10] the test system is SN12C renal.

Structures are written as SMILES.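 Method: 48-hour compound exposure of cells in 96-well plates, five concentrations, linear interpolation of endpoints. At the GI50, growth is halved. TGI: total growth inhibition.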

In the case of `NS(=O)(=O)c1ccc(N=Nc2c(O)[nH]c3ccc(-c4cnco4)cc23)cc1`, the GI50 is over 6.68 µM in assay [1]; over 25 µM in [2]; 14.4 µM in assay [3]; over 25 µM in assay [4]; over 25 µM in [5]; over 25 µM in [6]. Besides, the GI50 is over 25 µM in [7], 6.97 µM in [8], 4.99 µM in assay [9] and over 25 µM in assay [10]. Also, the TGI in assay [1], in [2], in [3], in assay [4], in [5] and in [6] was over 25 µM in each case. The TGI in assay [7], in assay [8], in [9] and in assay [10] was over 25 µM throughout.

`CCOc1ccccc1NC(=O)CC(C(=O)OC)C(=O)C(=O)OC` (stereo not drawn): the TGI in assay [1], in [2], in assay [3], in [4], in [5] and in [6] was over 100 µM throughout. Moreover, the TGI in assay [7], in [8], in [9] and in [10] was over 100 µM in each case.

Consider `COc1cc2c3c(n(CCCNC(=O)OCC4c5ccccc5-c5ccccc54)c(=O)c2cc1OC)-c1cc2c(cc1/C3=C\CCNC(=O)OCC1c3ccccc3-c3ccccc31)OCO2`, for which the GI50 in assay [1] was over 11 µM; in assay [2], 35.7 µM; in assay [3], 1.42 µM; in assay [4], over 44.6 µM; in assay [5], 45.5 µM; in assay [6] it was over 40.7 µM. The GI50 in assay [7] is over 19.6 µM; in assay [9], 3.29 µM; in assay [10], over 50 µM. The TGI in assay [1] was over 23.6 µM; in [2], over 50 µM; in assay [3] it was over 50 µM; in assay [4], over 50 µM; in assay [5] it was over 50 µM; in assay [6] it was over 50 µM. Also, the TGI in [7] is over 45 µM; in [8] it was over 12.9 µM; in assay [9], 21 µM; in assay [10] it was over 50 µM.

In the case of `O=C(N/N=C/c1ccccc1)c1c(-c2cccnc2)cnc2ccccc12`, the TGI in assay [1], in [2], in [3], in assay [4], in [5] and in assay [6] was over 100 µM in each case. Besides, the TGI in [7], in assay [8], in [9] and in [10] was over 100 µM in each case.

As to `O=C1OC(c2ccccc2)=N/C1=C\c1cccc2ccccc12`, the TGI in assay [1], in assay [2], in assay [3], in assay [4], in [5] and in assay [6] was over 100 µM each time. The TGI in [7], in [8], in assay [9] and in assay [10] was over 100 µM throughout.

In the case of `CCCCCCCC/C=C/CCCCCCCC(=O)OC[C@H]1O[C@@H](n2ccc(N)nc2=O)C(F)(F)[C@@H]1O`, the GI50 is 0.201 µM in assay [1]; under 0.0183 µM in assay [2]; under 0.0158 µM in assay [3]; 8.86 µM in [4]; 0.0463 µM in assay [5]; 0.141 µM in [6]. Further, the GI50 in assay [7] was 0.724 µM; in assay [8], under 0.018 µM; in [9], under 0.0134 µM; in assay [10], 0.0388 µM. Further, the TGI in assay [1] was over 100 µM; in [2], 1.17 µM; in assay [3], 2.09 µM; in [4], over 100 µM; in assay [5], over 100 µM; in assay [6], 34.7 µM. Also, the TGI in assay [7] is over 100 µM; in assay [8], over 100 µM; in [9], 11.1 µM; in assay [10], over 47.2 µM.

Turning to `O=C(NC1=CC(=O)c2ccccc2C1=O)c1ccccc1`, the GI50 in [1] was 0.702 µM; in assay [2], 0.284 µM; in assay [3], 0.872 µM; in assay [4], 0.685 µM; in assay [5], 1.7 µM; in [6] it was 0.572 µM. Moreover, the GI50 in assay [7] is 1.18 µM; in assay [8] it was 0.409 µM; in assay [9] it was 0.709 µM; in assay [10] it was 1.49 µM. For the same compound, the TGI in [1] turned out to be 2.76 µM; in assay [2] it was 0.913 µM; in [4] it was 2.01 µM; in assay [5], 3.27 µM; in assay [6], 2.6 µM; in assay [7], 15.5 µM. Also, the TGI in assay [8] is 1.6 µM; in assay [9], 4.85 µM; in assay [10], 6.01 µM.

In the case of `Nn1c(=O)n(Cc2ccccc2)n(-c2ccccc2)c1=O`, the TGI in assay [1], in assay [2], in assay [3], in [4], in assay [5] and in assay [6] was over 100 µM in each case. Further, the TGI in assay [7], in assay [8], in [9] and in assay [10] was over 100 µM each time.
